The text below walks through data of patent publication US7423017B2, “Method for treating cartilage disorders” (Genentech, Inc., priority 1997, dated 2008).

Data set [1] has as its target T1, IGFBP-1 (Homo sapiens, UniProt P08833).
T1 sequence (P08833 26-259): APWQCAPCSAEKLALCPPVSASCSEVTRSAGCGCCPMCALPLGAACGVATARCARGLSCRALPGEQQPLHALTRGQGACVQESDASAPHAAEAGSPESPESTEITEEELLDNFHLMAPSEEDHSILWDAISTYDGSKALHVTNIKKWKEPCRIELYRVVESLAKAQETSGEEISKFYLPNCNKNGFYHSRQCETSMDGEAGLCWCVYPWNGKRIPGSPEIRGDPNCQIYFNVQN
Briefly: KIRA cell-based assay of IGF-like activity displaced by peptides from IGF-1/IGFBP-1. To be noted: 2 nM IGF-1, […] IGFBP-1. As for the experimental part: A cell-based (KIRA) assay was previously described for measuring the amount of IGF-like activity displaced by peptides from mixtures of IGF-1 and binding proteins (Lowman et al., supra, 1998; WO 98/45427, supra). The KIRA assay was used to compare in vitro bioactivity of BP1-16, BP1-02, BP1-25, and BP1-40. […] IGF-1 and peptide were mixed and added to cells expressing IGF receptor for 30 min, then IGFBP-1 was added for an additional 1 h.

Data set [2] deals with T1, IGFBP-1. Briefly: BIAcore direct binding kinetics of peptides on immobilized IGFBP-1. Set-up: made in house; host or cells: CHO cells. To be noted: for Kd: koff/kon, BIAcore kinetics, read-out: KD ± (SD or SE). The text has this: WO 98/45427 published Oct. 15, 1998 discloses the preparation and characterization of the IGFBP-1 displacer peptide BP1-01 ([…]) (SEQ ID NO:26). The kinetics of BP1-01 peptide variants were examined in a BIAcore™ (BIAcore, Inc., Piscataway, N.J.) assay using IGFBP-1 covalently coupled via EDC/NHS (as described by the manufacturer) to a dextran chip. […] The latter implies a half-life for peptide dissociation from IGFBP-1 of approximately 28 sec. The association rate constant is moderately fast, consistent with the notion that the peptide may not undergo significant conformation change upon binding to IGFBP-1.
Inhibition assays for measuring relative potencies of peptides for inhibiting IGFBP-1 binding to IGF-I have been described (e.g., WO 98/45427, supra). Peptides described herein were of sufficient binding affinity to allow for direct measurement of binding affinities by surface plasmon resonance (SPR) using a BIACORE™ system. The direct binding kinetics of IGFBP-1 peptides were measured by injecting a series of 2-fold diluted peptides in running buffer (0.05% TWEEN 20™ in PBS) over a carboxy-methyl (CM) biosensor chip coupled with about 590-1000 RU of IGFBP-1 at a flow rate of 50 μl/min on a BIACORE 2000™ or BIACORE 3000™ surface-plasmon-resonance instrument. The immobilization of IGFBP-1 was performed through EDC/NHS chemistry as described by the manufacturer. Peptides were also injected through a flow cell containing IGFBP-3 as background control. Since the off-rate for most of the peptides is relatively fast (in the range of 2×10^−2 s^−1), off-rate measurement was set for 30 minutes. This allowed for regeneration of IGFBP-1 on the chip by simple dissociation, rather than by addition of eluent. For each dilution of peptides, a global fit of the sensorgram data was performed using a 1:1 Langmuir binding model.

Data set [3] addresses T2, IGFBP-3 (Homo sapiens, UniProt P17936).
T2 construct: made in house
In words: IGF-1 blocking phage assay: peptide-phage binding to coated IGFBP-3 with/without IGF-1. To be noted: 100 nM IGF-1; 50-fold dilution of phage. As for the experimental part:
IGFBP-3 was coated directly onto MAXISORP198 plates as above. Phage from clonal cultures were mixed with IGF-1 (100 nM final concentration), and incubated with the immobilized IGFBP-3 for 1 hour at room temperature. The plates were then washed ten times, as above, and a solution of rabbit anti-phage antibody mixed with a goat-anti-rabbit conjugate of horseradish peroxidase was added. After an incubation of 1 hour at room temperature, the plates were developed with a chromogenic substrate, o-phenylenediamine (Sigma). The reaction was stopped with addition of ½ volume of 2.5 M H2SO4. Optical density at 490 nm was measured on a spectrophotometric plate reader.
In each case, the phagemid clone was grown from a single colony overnight at 37° C. in a culture volume of 5 ml. The phage particles were precipitated and resuspended in 0.5 ml of PBS buffer. A 50-fold dilution of each phage solution was made into PBS/TWEEN™ buffer, and the phage were incubated with or without 100 nM IGF-1 on an IGFBP-3-coated MAXISORP™ plate.
In each case, the phagemid clone was grown from a single colony overnight at 37° C. in a culture volume of 5 ml. The phage particles were prepared as described above.

Data set [4] has as its target T2, IGFBP-3. In words: phage-ELISA competition assay of g3 peptide-phage clones. To be noted: g3 monovalent display. It counts as binding. The text has this: A third clone, 3Ai.2, represents a new peptide sequence that was not identified from g8 display.
Data set [5] addresses T2, IGFBP-3. In words: radiolabeled IGF-1 plate assay, IGFBP-3 plate. It counts as binding. As for the experimental part: (§1) As an additional assay of peptide activity, several peptides were tested in an assay using ^125I-labeled IGF-1 to measure inhibition of IGFBP binding, as described above (Assay 3). Serial dilutions of peptide were added to an IGFBP-1 or an IGFBP-3 plate. Thereafter, ^125I-labeled IGF-1 was added and the plates were incubated for 2 hours. The plates were then washed and counted to determine the amount of bound IGF-1.

For data set [6], the target named is T1, IGFBP-1. In words: radiolabeled IGF-1 plate assay, IGFBP-1 plate. Type of data set: binding. Set-up: made in house; host or cells: CHO cells. As for the experimental part: as §1
The target in data set [7] is T2, IGFBP-3. In words: BIACORE competition assay: IGFBP-3 binding to immobilized IGF-1. As for the experimental part:
IGF-1 was immobilized on a dextran chip for inhibition assays using a BIACORE™ 2000 surface-plasmon-resonance device (BIAcore, Inc., Piscataway, N.J.) to measure free binding protein. IGF-1 was biotinylated as described above, and injected over a chip to which streptavidin had been coupled (BIAcore, Inc.) to give 400 to 800 RU (response units) of immobilized IGF-1. […] Serial dilutions of peptide were mixed with a constant concentration (40 nM) of IGFBP-3. After incubation for >1 hour at room temperature, an aliquot of 20 μL was injected at a flow rate of 20 μL/min over the IGF-1 chip. Following the injection, a response reading was taken to measure the relative amount of IGFBP-3 bound to the IGF-1.

Positions of bridges follow the written chain, without caps; N, C: chain ends. Residues, ends and D or L forms follow the SMILES beside them.

T2 sequence (P17936 28-291): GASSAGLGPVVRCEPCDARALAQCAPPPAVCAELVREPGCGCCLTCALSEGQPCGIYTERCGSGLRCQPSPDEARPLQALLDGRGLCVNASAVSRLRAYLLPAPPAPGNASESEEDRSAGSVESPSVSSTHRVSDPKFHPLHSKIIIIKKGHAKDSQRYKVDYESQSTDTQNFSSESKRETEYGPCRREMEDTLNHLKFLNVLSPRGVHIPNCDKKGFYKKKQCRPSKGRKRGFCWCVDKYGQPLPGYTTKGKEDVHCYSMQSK

With `CC(C)C[C@@H]1NC(=O)[C@H](Cc2c[nH]c3ccccc23)NC(=O)[C@H](CCC(N)=O)NC(=O)[C@H](CC(C)C)NC(=O)[C@@H]2CCCN2C(=O)CNC(=O)[C@H](C)NC(=O)[C@H](CCCNC(=N)N)NC(=O)[C@@H](NC(=O)CNC(=O)[C@@H](NC(=O)[C@H](CCC(=O)O)NC(=O)[C@@H](N)CO)C(C)C)CSSC[C@@H](C(=O)N[C@@H](CCC(=O)O)C(=O)N[C@@H](CCCCN)C(=O)N[C@@H](Cc2ccc(O)cc2)C(=O)N[C@@H](Cc2ccccc2)C(=O)NCC(=O)O)NC1=O` [BP1-02] (H-SEVGCRAGPLQWLCEKYFG-OH; disulfide 5-14; N-terminus and C-terminus assumed), the “EC20 (concentration at which 20% of maximal IGF-1 activity is observed)” value on IGFBP-1 [1] was 150 to 200 nM. Also, on IGFBP-1 [2], the “half-life for peptide dissociation from IGFBP-1” value is “approximately 28 sec” and the Kd came out at 210 ± 46 nM. The kon on IGFBP-1 [2] (peptide on immobilized IGFBP-1, read-out: association rate constant) was found to be 230000 M⁻¹ s⁻¹. Consider VAWEVCWDRHDQGYICTTDS [4D3.11], for which the “inhibited for binding to IGFBP-3 (phage clone with vs without IGF-1)” value (from here on “inhibited … (phage clone with vs without IGF-1)”) on IGFBP-3 [3] was 5%. Turning to EESECFEGPGYVICGLVG [g3-4B3.3], at IGFBP-3 [4], the “apparent affinity in phage-ELISA competition assays” value is reported as below 100 nM.

With `CSCC[C@@H]1NC(=O)[C@H](Cc2c[nH]c3ccccc23)NC(=O)[C@@H]2CCCN2C(=O)CNC(=O)[C@H](CC(=O)O)NC(=O)[C@H](C)NC(=O)[C@@H](NC(=O)[C@@H](NC(=O)CNC(=O)[C@H](CCSC)NC(=O)[C@@H](N)CC(=O)O)C(C)C)CSSC[C@@H](C(=O)N[C@@H](CCC(=O)O)C(=O)N[C@@H](Cc2c[nH]c3ccccc23)C(=O)N[C@H](C(=O)N[C@@H](CCC(=O)O)C(=O)O)[C@@H](C)O)NC(=O)[C@H](C(C)C)NC(=O)[C@H](Cc2ccc(O)cc2)NC1=O` [BP3-02-ox] (H-DMGVCADGPWMYVCEWTE-OH; disulfide 5-14; N-terminus and C-terminus assumed), on IGFBP-3 [5], the “inhibition of 125I-IGF-1 binding to an IGFBP-3 plate” value is listed as “inhibition”. The “inhibition of 125I-IGF-1 binding to an IGFBP-1 coated plate” value on IGFBP-1 [6] is listed as “did not inhibit IGF-1 binding to an IGFBP-1 coated plate”.

On to `CC(C)C[C@@H]1NC(=O)[C@H](Cc2c[nH]c3ccccc23)NC(=O)[C@H](CCC(N)=O)NC(=O)[C@H](CC(C)C)NC(=O)[C@@H]2CCCN2C(=O)CNC(=O)[C@H](C)NC(=O)[C@H](CCCNC(=N)N)NC(=O)[C@@H](NC(=O)[C@@H](NC(=O)[C@H](CCCNC(=N)N)NC(=O)[C@H](C)NC(=O)[C@@H](N)CCC(=O)O)C(C)C)CSSC[C@@H](C(=O)N[C@@H](CCC(=O)O)C(=O)N[C@@H](CCCCN)C(=O)N[C@@H](Cc2ccc(O)cc2)C(=O)N[C@@H](Cc2ccccc2)C(=O)N[C@@H](CO)C(=O)N[C@H](C(=O)N[C@@H](Cc2ccc(O)cc2)C(=O)O)[C@@H](C)O)NC1=O` [BP1-25] (H-EARVCRAGPLQWLCEKYFSTY-OH; disulfide 5-14; N-terminus and C-terminus assumed), for which, at IGFBP-1 [1], the “EC20 (concentration at which 20% of maximal IGF-1 activity is observed)” value fell in the range of 10 to 20 nM. Besides, the dissociation constant (Kd) at IGFBP-1 [2] stood at 42 ± 11 nM.

VAWEVCWDRHDQGYICTTDS [g3-4D3.11]: the “apparent affinity in phage-ELISA competition assays” value at IGFBP-3 [4] is below 100 nM.

For SGGAIYWPVEQFIAFMAVGK [23A3.3], the “inhibited … (phage clone with vs without IGF-1)” value on IGFBP-3 [3] is on record as “about 20%”. On to `CC(C)C[C@@H]1NC(=O)[C@H](Cc2c[nH]c3ccccc23)NC(=O)[C@H](CCC(N)=O)NC(=O)[C@H](CC(C)C)NC(=O)[C@@H]2CCCN2C(=O)CNC(=O)[C@H](C)NC(=O)[C@H](CCCNC(=N)N)NC(=O)[C@@H](NC(=O)[C@H](CO)NC(=O)[C@H](CCC(N)=O)NC(=O)[C@H](CCC(N)=O)NC(=O)CN)CSSC[C@@H](C(=O)N[C@@H](CCC(=O)O)C(=O)N[C@@H](CCCCN)C(=O)N[C@@H](Cc2ccc(O)cc2)C(=O)N[C@@H](Cc2ccccc2)C(=O)N[C@@H](CO)C(=O)N[C@H](C(=O)N[C@@H](Cc2ccc(O)cc2)C(=O)O)[C@@H](C)O)NC1=O` [BP1-40] (H-GQQSCRAGPLQWLCEKYFSTY-OH; disulfide 5-14; N-terminus and C-terminus assumed), for which the “EC20 (concentration at which 20% of maximal IGF-1 activity is observed)” value at IGFBP-1 [1] is 10 to 20 nM. The Kd on IGFBP-1 [2] came out at 27 ± 21 nM. On to `CSCC[C@H](NC(=O)[C@H](CC(N)=O)NC(=O)[C@@H]1CSSC[C@H](NC(=O)[C@@H](NC(=O)[C@H](CCC(=O)O)NC(=O)[C@H](CCC(=O)O)NC(=O)[C@@H](N)CO)C(C)C)C(=O)N[C@@H](Cc2c[nH]c3ccccc23)C(=O)N2CCC[C@H]2C(=O)N[C@@H](C(C)C)C(=O)N[C@@H](C)C(=O)N[C@@H](CCC(=O)O)C(=O)N[C@@H](Cc2c[nH]c3ccccc23)C(=O)N[C@@H](Cc2ccc(O)cc2)C(=O)N[C@@H](CC(C)C)C(=O)N1)C(=O)N[C@@H](Cc1c[nH]c2ccccc12)C(=O)NCC(=O)O` [BP3-01-ox] (H-SEEVCWPVAEWYLCNMWG-OH; disulfide 5-14; N-terminus and C-terminus assumed), for which the “inhibition of 125I-IGF-1 binding to an IGFBP-3 plate” value at IGFBP-3 [5] is “inhibition”. This molecule also registered an IC50 at IGFBP-3 [7] of 2000 nM. Besides, the “inhibition of 125I-IGF-1 binding to an IGFBP-1 coated plate” value at IGFBP-1 [6] is reported as “did not inhibit IGF-1 binding to an IGFBP-1 coated plate”.

For SGGAIYMPVEQFIAFMAVGK [23A3.5], at IGFBP-3 [3], the “inhibited … (phage clone with vs without IGF-1)” value is on record as “about 20%”.
